# Laboratory results: patent publication US12358886B2, “Heterocyclic compounds for use in the treatment of cancer” (Artios Pharma Limited, priority 2019, dated 2025)
# Target: Polθ protein (amino acids 2-2590) (Homo sapiens, UniProt O75417)
# Assay: Polθ full length enzyme potency assay (PicoGreen)
# Details: Polθ IC50 (nM), full length N-His, C-term FLAG tagged Polθ, PicoGreen fluorescence, 12 point concentration response
# Sequence of Polθ protein (amino acids 2-2590) (O75417 2-2590): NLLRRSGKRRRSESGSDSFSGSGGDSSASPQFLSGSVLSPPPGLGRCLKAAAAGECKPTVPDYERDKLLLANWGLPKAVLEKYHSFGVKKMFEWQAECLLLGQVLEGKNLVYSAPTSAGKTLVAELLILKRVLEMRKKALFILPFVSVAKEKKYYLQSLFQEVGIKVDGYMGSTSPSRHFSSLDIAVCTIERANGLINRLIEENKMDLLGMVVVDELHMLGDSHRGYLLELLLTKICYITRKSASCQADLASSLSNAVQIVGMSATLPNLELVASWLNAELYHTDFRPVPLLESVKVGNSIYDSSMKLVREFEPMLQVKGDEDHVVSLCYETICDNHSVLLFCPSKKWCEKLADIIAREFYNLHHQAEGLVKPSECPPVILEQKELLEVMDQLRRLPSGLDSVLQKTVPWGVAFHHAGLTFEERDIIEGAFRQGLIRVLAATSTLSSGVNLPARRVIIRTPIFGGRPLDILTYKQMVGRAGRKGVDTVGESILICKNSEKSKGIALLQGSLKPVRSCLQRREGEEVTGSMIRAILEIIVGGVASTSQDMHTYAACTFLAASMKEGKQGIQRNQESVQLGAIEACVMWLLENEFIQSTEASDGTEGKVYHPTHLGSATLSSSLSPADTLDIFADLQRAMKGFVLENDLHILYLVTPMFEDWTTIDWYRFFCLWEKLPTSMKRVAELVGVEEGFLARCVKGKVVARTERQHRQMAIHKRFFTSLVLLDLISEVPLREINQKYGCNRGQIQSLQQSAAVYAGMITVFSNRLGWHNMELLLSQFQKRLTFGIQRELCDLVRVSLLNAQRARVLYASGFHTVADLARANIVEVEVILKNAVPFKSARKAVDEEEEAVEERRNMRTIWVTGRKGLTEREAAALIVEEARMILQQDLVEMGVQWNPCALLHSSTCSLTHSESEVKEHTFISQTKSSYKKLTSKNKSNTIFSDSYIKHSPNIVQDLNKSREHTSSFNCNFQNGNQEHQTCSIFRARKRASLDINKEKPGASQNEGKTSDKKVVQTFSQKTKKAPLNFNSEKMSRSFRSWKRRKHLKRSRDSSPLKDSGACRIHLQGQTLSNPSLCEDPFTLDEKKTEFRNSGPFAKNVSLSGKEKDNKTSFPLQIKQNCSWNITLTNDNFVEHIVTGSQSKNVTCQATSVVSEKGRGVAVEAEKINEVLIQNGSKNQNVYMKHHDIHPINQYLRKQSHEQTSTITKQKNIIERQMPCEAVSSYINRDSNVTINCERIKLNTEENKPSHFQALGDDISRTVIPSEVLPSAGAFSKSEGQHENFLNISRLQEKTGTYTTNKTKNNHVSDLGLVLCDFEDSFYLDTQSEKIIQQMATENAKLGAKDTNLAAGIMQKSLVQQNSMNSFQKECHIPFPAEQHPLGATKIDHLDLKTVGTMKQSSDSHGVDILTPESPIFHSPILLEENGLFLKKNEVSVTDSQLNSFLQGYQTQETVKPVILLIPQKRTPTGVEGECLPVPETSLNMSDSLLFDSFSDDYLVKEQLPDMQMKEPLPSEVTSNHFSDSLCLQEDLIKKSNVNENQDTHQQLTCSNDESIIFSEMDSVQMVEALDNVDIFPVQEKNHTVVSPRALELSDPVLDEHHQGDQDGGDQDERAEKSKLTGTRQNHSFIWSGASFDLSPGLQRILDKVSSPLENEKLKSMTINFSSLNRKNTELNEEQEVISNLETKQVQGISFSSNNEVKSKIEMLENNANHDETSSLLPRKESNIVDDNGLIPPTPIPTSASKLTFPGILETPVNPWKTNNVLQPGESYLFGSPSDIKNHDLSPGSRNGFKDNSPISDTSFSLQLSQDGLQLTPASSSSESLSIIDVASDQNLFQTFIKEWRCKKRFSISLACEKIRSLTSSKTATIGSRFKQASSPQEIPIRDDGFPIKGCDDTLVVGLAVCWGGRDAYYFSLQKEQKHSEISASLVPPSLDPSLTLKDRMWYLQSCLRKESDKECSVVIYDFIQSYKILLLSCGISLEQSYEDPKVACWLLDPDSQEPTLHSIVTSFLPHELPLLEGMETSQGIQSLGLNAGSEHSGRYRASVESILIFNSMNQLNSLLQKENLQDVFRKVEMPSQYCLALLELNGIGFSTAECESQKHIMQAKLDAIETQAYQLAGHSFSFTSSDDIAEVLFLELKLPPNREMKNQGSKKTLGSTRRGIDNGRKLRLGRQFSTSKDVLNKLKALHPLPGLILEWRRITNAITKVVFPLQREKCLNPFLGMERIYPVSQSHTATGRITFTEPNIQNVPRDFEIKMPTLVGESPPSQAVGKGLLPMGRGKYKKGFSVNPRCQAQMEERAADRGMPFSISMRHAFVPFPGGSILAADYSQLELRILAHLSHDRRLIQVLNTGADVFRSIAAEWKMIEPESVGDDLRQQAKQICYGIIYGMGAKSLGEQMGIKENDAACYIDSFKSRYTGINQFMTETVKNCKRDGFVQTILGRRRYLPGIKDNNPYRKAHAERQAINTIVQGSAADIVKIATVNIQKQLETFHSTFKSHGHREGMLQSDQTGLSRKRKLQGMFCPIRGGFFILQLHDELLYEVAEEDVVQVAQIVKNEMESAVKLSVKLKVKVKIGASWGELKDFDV
row,SMILES,IC50
1,"CCc1cc(C)nc(N2C(=O)OC[C@H]2C(=O)N(C)c2ccc(F)c(Cl)c2)c1 [Example 119, (S)—N-(3-Chloro-4-fluorophenyl)-3-(4-ethyl-6-methylpyridin-2-yl)-N-methyl-2-oxooxazolidine-4-carboxamide]",39 nM
2,"CN(C(=O)[C@@H]1COC(=O)N1c1cc(OC(F)F)cc(Cl)n1)c1ccc(F)c(Cl)c1 [Example 120, (S)-3-(6-Chloro-4-(difluoromethoxy)pyridin-2-yl)-N-(3-chloro-4-fluorophenyl)-N-methyl-2-oxooxazolidine-4-carboxamide]",94 nM
3,"Cc1cc(OC(F)F)cc(N2C(=O)OC[C@H]2C(=O)N(C)c2ccc(F)c(Cl)c2)n1 [Example 121, (S)—N-(3-Chloro-4-fluorophenyl)-3-(4-(difluoromethoxy)-6-methylpyridin-2-yl)-N-methyl-2-oxooxazolidine-4-carboxamide]",167 nM
4,"CN(C(=O)[C@@H]1COC(=O)N1c1cc(C(C)(C)C)cc(Cl)n1)c1ccc(F)c(Cl)c1 [Example 122, (S)-3-(4-(tert-Butyl)-6-chloropyridin-2-yl)-N-(3-chloro-4-fluorophenyl)-N-methyl-2-oxooxazolidine-4-carboxamide]",41 nM
5,"Cc1cc(C(C)(C)C)cc(N2C(=O)OC[C@H]2C(=O)N(C)c2ccc(F)c(Cl)c2)n1 [Example 123, (S)-3-(4-(tert-Butyl)-6-methylpyridin-2-yl)-N-(3-chloro-4-fluorophenyl)-N-methyl-2-oxooxazolidine-4-carboxamide]",36 nM
6,"Cc1cc(C(C)C(F)(F)F)cc(N2C(=O)OC[C@H]2C(=O)N(C)c2ccc(F)c(Cl)c2)n1 (stereo partly drawn) [Example 124, (4S)—N-(3-Chloro-4-fluorophenyl)-N-methyl-3-(6-methyl-4-(1,1,1-trifiuoropropan-2-yl)pyridin-2-yl)-2-oxooxazolidine-4-carboxamide]",304 nM
7,"CCN(C(=O)[C@@H]1COC(=O)N1c1cc(C(C)(F)F)cc(C)n1)c1ccc(F)c(Cl)c1 [Example 125, (S)—N-(3-Chloro-4-fluorophenyl)-3-(4-(1,1-difluoroethyl)-6-methylpyridin-2-yl)-N-ethyl-2-oxooxazolidine-4-carboxamide]",261 nM
8,"Cc1cc(C(F)(F)F)cc(N2C(=O)OC[C@H]2C(=O)N(C)c2ccc3cc[nH]c3c2)n1 [Example 126, (S)—N-(1H-Indol-6-yl)-N-methyl-3-(6-methyl-4-(trifluoromethyl)pyridin-2-yl)-2-oxooxazolidine-4-carboxamide]",11 nM
9,"Cc1cc(C(F)(F)F)cc(N2C(=O)OC[C@H]2C(=O)N(C)c2ccc3cc[nH]c3n2)n1 [Example 127, (S)—N-Methyl-3-(6-methyl-4-(trifluoromethyl)pyridin-2-yl)-2-oxo-N-(1H-pyrrolo[2,3-b]pyridin-6-yl)oxazolidine-4-carboxamide]",15 nM
10,"CCN(C(=O)[C@@H]1C[C@H](N2CCOC(CO)C2)CN1c1cc(C(F)(F)F)cc(C)n1)c1ccc(F)c(F)c1 (stereo partly drawn) [Example 128, (2S,4S)-N-(3,4-Difluorophenyl)-N-ethyl-4-(2-(hydroxymethyl)morpholino)-1-(6-methyl-4-(trifluoromethyl)pyridin-2-yl)pyrrolidine-2-carboxamide]",42 nM
11,"CCN(C(=O)[C@@H]1C[C@H](N2CCC(O)C2)CN1c1cc(C(F)(F)F)cc(C)n1)c1ccc(F)c(F)c1 (stereo partly drawn) [Example 129, (3S,5S)-N-(3,4-Difluorophenyl)-N-ethyl-3-hydroxy-1′-(6-methyl-4-(trifluoromethyl)pyridin-2-yl)-[1,3′-bipyrrolidine]-5′-carboxannide]",78 nM
12,"CCN(C(=O)[C@@H]1C[C@H](N2CC(O)C2)CN1c1cc(C(F)(F)F)cc(C)n1)c1ccc(F)c(F)c1 [Example 130, (2S,4S)-N-(3,4-Difluorophenyl)-N-ethyl-4-(3-hydroxyazetidin-1-yl)-1-(6-methyl-4-(trifluoromethyl)pyridin-2-yl)pyrrolidine-2-carboxamide]",100 nM
13,"CCN(C(=O)[C@@H]1C[C@H](N[C@@H]2CCOC[C@H]2O)CN1c1cc(C(F)(F)F)cc(C)n1)c1ccc(F)c(F)c1 [Example 131, (2S,4S)-N-(3,4-Difluorophenyl)-N-ethyl-4-(((3S,4R)-3-hydroxytetrahydro-2H-pyran-4-yl)amino)-1-(6-methyl-4-(trifluoromethyl)pyridin-2-yl)pyrrolidine-2-carboxamide]",248 nM
14,"CCN(C(=O)[C@@H]1C[C@H](N[C@@H]2COCC[C@H]2O)CN1c1cc(C(F)(F)F)cc(C)n1)c1ccc(F)c(F)c1 [Example 132, (2S,4S)-N-(3,4-Difluorophenyl)-N-ethyl-4-(((3R,4R)-4-hydroxytetrahydro-2H-pyran-3-yl)amino)-1-(6-methyl-4-(trifluoromethyl)pyridin-2-yl)pyrrolidine-2-carboxamide]",156 nM

# Second part, the molecule after the results:
row,IC50,SMILES
1,122 nM,"CCN(C(=O)[C@@H]1C[C@H](N[C@@H]2CCC[C@H]2O)CN1c1cc(C(F)(F)F)cc(C)n1)c1ccc(F)c(F)c1 [Example 133, (2S,4S)-N-(3,4-Difluorophenyl)-N-ethyl-4-(((1R,2R)-2-hydroxycyclopentyl)amino)-1-(6-methyl-4-(trifluoromethyl)pyridin-2-yl)pyrrolidine-2-carboxamide]"
2,124 nM,"CCN(C(=O)[C@@H]1C[C@H](N[C@H]2CCC[C@H]2O)CN1c1cc(C(F)(F)F)cc(C)n1)c1ccc(F)c(F)c1 [Example 134, (2S,4S)-N-(3,4-Difluorophenyl)-N-ethyl-4-(((1S,2R)-2-hydroxycyclopentyl)amino)-1-(6-methyl-4-(trifluoromethyl)pyridin-2-yl)pyrrolidine-2-carboxamide]"
3,45 nM,"CCN(C(=O)[C@@H]1C[C@H](N[C@H]2CN(C(=O)OC(C)(C)C)C[C@H]2O)CN1c1cc(C(F)(F)F)cc(C)n1)c1ccc(F)c(F)c1 [Example 136, tert-Butyl (3S,4R)-3-(((3S,5S)-5-((3,4-difluorophenyl)(ethyl)carbamoyl)-1-(6-methyl-4-(trifluoromethyl)pyridin-2-yl)pyrrolidin-3-yl)amino)-4-hydroxypyrrolidine-1-carboxylate]"
4,300 nM,"CCN(C(=O)[C@@H]1C[C@H](NC2CNC(=O)C2)CN1c1cc(C(F)(F)F)cc(C)n1)c1ccc(F)c(F)c1 (stereo partly drawn) [Example 137, (2S,4S)-N-(3,4-Difluorophenyl)-N-ethyl-1-(6-methyl-4-(trifluoromethyl)pyridin-2-yl)-4-((5-oxopyrrolidin-3-yl)amino)pyrrolidine-2-carboxamide]"
5,165 nM,"CCN(C(=O)[C@@H]1C[C@H](NC2COC2)CN1c1cc(C(F)(F)F)cc(C)n1)c1ccc(F)c(F)c1 [Example 138, (2S,4S)-N-(3,4-Difluorophenyl)-N-ethyl-1-(6-methyl-4-(trifluoromethyl)pyridin-2-yl)-4-(oxetan-3-ylamino)pyrrolidine-2-carboxamide]"
6,164 nM,"CCN(C(=O)[C@@H]1C[C@H](N(C)[C@@H]2CCOC[C@H]2O)CN1c1cc(C(F)(F)F)cc(C)n1)c1ccc(F)c(F)c1 [Example 139, (2S,4S)—N-(3,4-Difluorophenyl)-N-ethyl-4-(((3S,4R)-3-hydroxytetrahydro-2H-pyran-4-yl)(methyl)amino)-1-(6-methyl-4-(trifluoromethyl)pyridin-2-yl)pyrrolidine-2-carboxamide]"
7,60 nM,"CCN(C(=O)[C@@H]1C[C@H](N(C)[C@@H]2COCC[C@H]2O)CN1c1cc(C(F)(F)F)cc(C)n1)c1ccc(F)c(F)c1 [Example 140, (2S,4S)-N-(3,4-Difluorophenyl)-N-ethyl-4-(((3R,4R)-4-hydroxytetrahydro-2H-pyran-3-yl)(methyl)amino)-1-(6-methyl-4-(trifluoromethyl)pyridin-2-yl)pyrrolidine-2-carboxamide]"
8,56 nM,"CCN(C(=O)[C@@H]1C[C@H](N(C)[C@@H]2CCC[C@H]2O)CN1c1cc(C(F)(F)F)cc(C)n1)c1ccc(F)c(F)c1 [Example 141, (2S,4S)-N-(3,4-Difluorophenyl)-N-ethyl-4-(((1R,2R)-2-hydroxycyclopentyl)(methyl)amino)-1-(6-methyl-4-(trifluoromethyl)pyridin-2-yl)pyrrolidine-2-carboxamide]"
9,160 nM,"CCN(C(=O)[C@@H]1C[C@H](N(C)[C@H]2CCC[C@H]2O)CN1c1cc(C(F)(F)F)cc(C)n1)c1ccc(F)c(F)c1 [Example 142, (2S,4S)-N-(3,4-Difluorophenyl)-N-ethyl-4-(((1S,2R)-2-hydroxycyclopentyl)(methyl)amino)-1-(6-methyl-4-(trifluoromethyl)pyridin-2-yl)pyrrolidine-2-carboxamide]"
10,1310 nM,"CCN(C(=O)[C@@H]1C[C@H](N(C)[C@H]2CN(C(=O)OC(C)(C)C)C[C@H]2O)CN1c1cc(C(F)(F)F)cc(C)n1)c1ccc(F)c(F)c1 [Example 144, tert-Butyl (3S,4R)-3-(((3S,5S)-5-((3,4-difluorophenyl)(ethyl)carbamoyl)-1-(6-methyl-4-(trifluoromethyl)pyridin-2-yl)pyrrolidin-3-yl)(methyl)amino)-4-hydroxypyrrolidine-1-carboxylate]"
11,708 nM,"CCN(C(=O)[C@@H]1C[C@H](N(C)C2CNC(=O)C2)CN1c1cc(C(F)(F)F)cc(C)n1)c1ccc(F)c(F)c1 (stereo partly drawn) [Example 145, (2S,4S)-N-(3,4-Difluorophenyl)-N-ethyl-4-(methyl(5-oxopyrrolidin-3-yl)amino)-1-(6-methyl-4-(trifluoromethyl)pyridin-2-yl)pyrrolidine-2-carboxamide]"
12,163 nM,"CCN(C(=O)[C@@H]1C[C@H](N(C)C2COC2)CN1c1cc(C(F)(F)F)cc(C)n1)c1ccc(F)c(F)c1 [Example 146, (2S,4S)-N-(3,4-Difluorophenyl)-N-ethyl-4-(methyl(oxetan-3-yl)amino)-1-(6-methyl-4-(trifluoromethyl)pyridin-2-yl)pyrrolidine-2-carboxamide]"
13,28 nM,"CCN(C(=O)[C@@H]1C[C@H](N2CCOC(CO)C2)CN1c1nc(C)cc(C(F)(F)F)c1C#N)c1cccc(Cl)c1 (stereo partly drawn) [Example 147, (2S,4S)-N-(3-Chlorophenyl)-1-(3-cyano-6-methyl-4-(trifluoromethyl)pyridin-2-yl)-N-ethyl-4-(2-(hydroxymethyl)morpholino)pyrrolidine-2-carboxamide]"
